Experimental data: US12215389B2, “Compositions for detecting epigenetic modifications” (EXACT SCIENCES CORPORATION, priority 2007, dated 2025)

Tested on: methylated gene promoters in plasma DNA
Assay: Real-time MSP on plasma DNA
Set-up: species or system human
Conditions: for % Specificity (all 59 controls), plasma set 1: plasma training set 1; for % Sensitivity adenomas plasma set 2: increased plasma equivalent of DNA per real-time MSP assay / % Specificity (all 89 controls), plasma set 2: increased plasma equivalent of DNA per real-time MSP assay: plasma training set 2
Procedure: 10 ml of blood was obtained per individual using EDTA Vacutainer™ tubes. Individuals with no suspicious findings, adenomas or carcinomas based on colonoscopy were enrolled in the present study. Within 4 hrs from the blood drawing, the plasma fraction was separated from the cell fraction by centrifugation at 1500 g for 15 min (4° C.). The plasma was transferred to new tubes and once again centrifuged (1500 g, 15 min, 4° C.), after which the supernatant was transferred to new tubes and stored at −80° C. until further use. Samples were shipped on dry ice.
DNA isolation from plasma samples (1.2 to 6 ml) was performed using an upscaled phenol-chloroform DNA isolation method using the 15 ml of Heavy Phase lock Gel tubes (PLG tubes) (Eppendorf, cat #0032 005.152) or alternatively the ChargeSwitch® gDNA 1 ml serum kit from Invitrogen (cat #CS11040).
Plasma samples were thawed and 1/10 volume of 10× buffer (240 mM EDTA (pH=8.0), 750 mM NaCl), 1/10 volume of 10% SDS and 5 μl of Proteinase K (20 mg/ml stock solution) per 1 ml of sample (e.g. 15 μl for 3 ml of sample) was added to each plasma sample. This mixture was incubated overnight at 48° C. at constant shaking (200 RPM).
Subsequently the PLG tube was centrifuged at 2500 RCF for 3 min, sample mixture and approximately the same volume of phenol/chloroform (Invitrogen, cat #15593049) were added to it. This solution was briefly vortexed, mixed for 10 min using a tube rocker at room temperature and centrifuged for 5 min at 2500 RCF. In case the retrieved sample volume was ≤4 ml, an equal volume of phenol/chloroform was added. The upper aqueous layer was phenol/chloroform-treated for a second time.
DNA was precipated from the upper aqueous layer by adding 5 μl glycogen, 1/10 volume of 7.5 M Ammonium Acetate and 2-2.5 volumes of cold (−20° C.) 100% ethanol. Tubes were gently inverted and incubated at −20° C. for at least 1 h, followed by a centrifugation step at 17000 RCF for 30 min (4° C.). Ethanol was carefully removed by pipetting. Pellets were washed with 2 ml freshly prepared 70% ethanol, vortexed gently and submitted to a centrifugation step at 17000 RCF for 15 min at 4° C. After careful removal of the remaining ethanol, pellets were air dried and resuspended in 45 μl of LoTE pH 8.0. The isolated DNA is stored at −80° C. until further processing.
The complete content of DNA isolated in above procedure was subjected to sodium bisulfite treatment (BT) using the EZ-96 DNA Methylation kit from Zymo Research (Cat #D5003) performed on a pipetting robot (Tecan Freedom EVOII, Roma, Liha, Mca, Te-Vacs). Briefly, 45 μl of plasma DNA sample was mixed with 5 μl of M-Dilution Buffer (provided in kit) and incubated at 37° C. for 15 min shaking at 1100 RPM. This mixture was further incubated with 100 μl of diluted CT conversion reagent (provided in kit) shaking at 70° C. for 3 hours (protected from light). Subsequently the modified DNA was desalted and desulfonated according to manufacturer's instructions and eluted in either 40 μl or 20 μl of Tris-HCl 1 mM pH8.0, depending on the applied concentration procedure. The eluted material was stored at −80° C. until further processing.
2.4 μl of the modified DNA was added to a PCR mix (total volume 12 μl) containing home-made buffer solution (final concentrations are summarized: 16.6 mM (NH4)2SO4, 67 mM Tris (pH 8.8), 6.7 mM MgCl2, 10 mM β-mercaptoethanol), dNTPs (5 mM; Amersham Biosciences cat #27-2035-02), methylation specific forward primer (6 ng), methylation specific reverse primer (18 ng), molecular beacon (0.16 μM) and Jumpstart DNA Taq polymerase (0.4 units; Sigma Cat #D9307).
A standard curve was included (9.6×10^5—9.6 copies) to determine copy numbers of unknown samples by interpolation of their Ct values to the standard curve.
DNA was isolated following the upscaled phenol-chloroform procedure; subsequently the whole DNA sample was modified as described above.

Substance	% Specificity (all 59 controls), plasma set 1 [%]	% Sensitivity adenomas plasma set 2: increased plasma equivalent of DNA per real-time MSP assay [%]	% Specificity (all 89 controls), plasma set 2: increased plasma equivalent of DNA per real-time MSP assay [%]
SFRP1 (DNA TGTAGTTTTCGGAGTTAGTGTCGCGC; listed as DNA, chemistry not given here)	98	2	96
GATA5 (DNA AGTTCGTTTTTAGGTTAGTTTTCGGC; listed as DNA, chemistry not given here)	97	6	99
